Patent US20220267260A1, “COMPOUNDS CONTAINING A SULFONIC GROUP AS KAT INHIBITORS” (Epizyme, Inc., priority 2016, published 2022)

Tests used:
[1] = target: T1, KAT6A (Homo sapiens, UniProt Q92794); test: KAT6A enzyme inhibition assay (SAMDI mass spectrometry); format: biochemical; details: His-TEV-KAT6A 501-784 enzyme construct
T1 construct: His-TEV tag (N, cleaved yes); made in house

[2] = target: T2, KAT5 (Homo sapiens, UniProt Q92993); test: KAT5 enzyme inhibition assay (SAMDI mass spectrometry); format: biochemical; details: His-TEV-FL KAT5-Flag enzyme construct
T2 construct: His-TEV tag (N, cleaved yes); made in house
T2 sequence (Q92993 with tags, fused parts or gaps): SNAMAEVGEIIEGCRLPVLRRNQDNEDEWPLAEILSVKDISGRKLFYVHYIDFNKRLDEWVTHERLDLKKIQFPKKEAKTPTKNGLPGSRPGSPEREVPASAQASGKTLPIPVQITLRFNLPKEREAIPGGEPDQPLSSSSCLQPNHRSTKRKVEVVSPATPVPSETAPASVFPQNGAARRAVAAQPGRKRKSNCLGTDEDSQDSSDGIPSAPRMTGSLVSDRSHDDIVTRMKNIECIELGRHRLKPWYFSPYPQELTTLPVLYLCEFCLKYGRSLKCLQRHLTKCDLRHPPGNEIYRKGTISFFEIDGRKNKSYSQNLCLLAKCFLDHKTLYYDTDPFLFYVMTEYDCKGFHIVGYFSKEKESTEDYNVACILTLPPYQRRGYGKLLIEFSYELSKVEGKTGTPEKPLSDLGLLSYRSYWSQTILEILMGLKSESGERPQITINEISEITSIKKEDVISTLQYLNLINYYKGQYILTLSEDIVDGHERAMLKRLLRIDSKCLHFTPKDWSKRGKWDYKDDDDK

T1 sequence (Q92794 with tags, fused parts or gaps): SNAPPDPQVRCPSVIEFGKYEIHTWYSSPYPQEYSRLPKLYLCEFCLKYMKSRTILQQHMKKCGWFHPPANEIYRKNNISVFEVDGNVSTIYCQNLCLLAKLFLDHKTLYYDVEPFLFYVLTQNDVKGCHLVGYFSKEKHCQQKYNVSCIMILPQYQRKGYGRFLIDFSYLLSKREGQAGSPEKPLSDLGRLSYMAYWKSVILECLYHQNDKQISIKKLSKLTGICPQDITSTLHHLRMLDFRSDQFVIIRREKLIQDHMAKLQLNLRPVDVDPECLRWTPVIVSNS

Compound	IC50 [1]	IC50 [2]
O=S(=O)(NNc1n[nH]c2ccccc12)c1ccccc1 [Compound I-44]	> 100 µM	> 100 µM
Cc1cc(-c2ccccc2)cc(C(=O)NNS(=O)(=O)CC2CCN(C(=O)OC(C)(C)C)CC2)c1F [Compound I-224]	≤ 10 µM	≤ 10 µM
Cc1cc(-c2ccccc2)cc(C(=O)NNS(=O)(=O)C2CN(C(=O)C(C)C)C2)c1F [Compound I-114]	10 to 50 µM	> 100 µM
O=C(NS(=O)(=O)c1ccccc1)c1c[nH]c2ccccc12 [Compound I-185]	> 100 µM	> 100 µM
Cc1cc(-c2ccccc2)cc(C(=O)NNS(=O)(=O)C2CCN(C)CC2)c1F [Compound I-90]	10 to 50 µM	10 to 50 µM
Cn1ccc2c(C(=O)NNS(=O)(=O)c3ccccc3)cc(-c3ccccc3)cc21 [Compound I-17]	> 100 µM	50 to 100 µM
COc1ccccc1CN1CC(S(=O)(=O)NNC(=O)c2cc(-c3ccccc3)cc(C)c2F)C1 [Compound I-22, N′-(4-fluoro-5-methyl-[1,1′-biphenyl]-3-carbonyl)-1-(2-methoxybenzyl)azetidine-3-sulfonohydrazide]	10 to 50 µM	10 to 50 µM
Cc1cc(-c2ccccc2)cc(C(=O)NNS(=O)(=O)C2CN(Cc3cccc(Cl)c3)C2)c1F [Compound I-28]	> 100 µM	> 100 µM
O=C(NNS(=O)(=O)c1ccccc1)c1cc(-c2ccccc2)cc2[nH]ccc12 [Compound I-16]	50 to 100 µM	> 100 µM
Cc1cc(-c2ccccc2)cc(C(=O)NNS(=O)(=O)C2CN(C(=O)c3ccccc3)C2)c1F [Compound I-34]	10 to 50 µM	10 to 50 µM
Cc1cc(-c2ccccc2)cc(C(=O)NNS(=O)(=O)Cc2ccc(Cl)cc2)c1F [Compound I-6]	≤ 10 µM	≤ 10 µM
Cc1ccccc1C(=O)NNS(=O)(=O)c1ccccc1 [Compound I-148]	> 100 µM	> 100 µM
Cc1cc(-c2ccccc2)cc(C(=O)NNS(=O)(=O)C2CCN(C(C)C)CC2)c1F [Compound I-92]	> 100 µM	> 100 µM
Cc1cc(-c2ccccc2)cc(C(=O)NNS(=O)(=O)c2cccc(OCc3ccccc3)c2)c1F [Compound I-210]	≤ 10 µM	≤ 10 µM
O=C(NNS(=O)(=O)c1ccccc1)c1cccc(Cl)c1 [Compound I-190]	10 to 50 µM	50 to 100 µM
Cc1cc(C(=O)NNS(=O)(=O)c2ccccc2)c(F)c(-c2ccccc2)c1 [Compound I-142]	≤ 10 µM	10 to 50 µM
Cc1cc(-c2ccccc2)cc(C(=O)NNS(=O)(=O)CC2CCCCC2)c1F [Compound I-227]	≤ 10 µM	≤ 10 µM
O=C(NNC(=O)c1ccccc1F)c1ccccc1 [Compound I-138]	> 100 µM	> 100 µM
Cc1cc(-c2ccccc2)cc(C(=O)NNS(=O)(=O)c2ccc(C(N)=O)cc2)c1F [Compound I-239]	≤ 10 µM	≤ 10 µM
Cc1c(-c2ccccc2)ccc(F)c1C(=O)NNS(=O)(=O)c1ccccc1Cl [Compound I-225]	10 to 50 µM	50 to 100 µM
Cc1cc(-c2ccccc2)cc(C(=O)N(C)NS(=O)(=O)c2ccccc2)c1F [Compound I-215]	10 to 50 µM	> 100 µM
Cc1cc(-c2ccccc2)cc(C(=O)NNS(=O)(=O)c2cccc(O)c2)c1F [Compound I-235]	≤ 10 µM	≤ 10 µM
Cc1cc(-c2ccccc2)cc(C(=O)NNS(=O)(=O)Cc2ccccc2F)c1F [Compound I-82]	≤ 10 µM	≤ 10 µM
Cc1cccc(S(=O)(=O)NNC(=O)c2c(F)ccc(-c3ccccc3)c2F)c1 [Compound I-155]	≤ 10 µM	10 to 50 µM

Further lines, results first:

IC50 [1]	IC50 [2]	Compound
> 100 µM	> 100 µM	CN(C)C(=O)c1cc(Cl)c(F)c(C(=O)NNS(=O)(=O)C2CCOCC2)c1 [Compound I-434]
10 to 50 µM	10 to 50 µM	Cc1cc(-c2cccc(C(=O)N(C)C)c2)cc(C(=O)NNS(=O)(=O)CC2CCCCC2)c1F [Compound I-374]
10 to 50 µM	≤ 10 µM	CNC(=O)c1cccc(-c2cc(C)c(F)c(C(=O)NNS(=O)(=O)CC3CCCCC3)c2)c1 [Compound I-433]
> 100 µM	> 100 µM	CC(C)C(Cc1ccccc1)C(=O)NNS(=O)(=O)c1ccccc1 (stereo not shown) [Compound I-260]
> 100 µM	≤ 10 µM	Cc1cccc(-c2cc(Cl)c(F)c(C(=O)NNS(=O)(=O)CC3CCCN(C(=O)OC(C)(C)C)C3)c2)c1 (stereo not shown) [Compound I-513]
> 100 µM	> 100 µM	O=C(NNS(=O)(=O)C1CCCCC1)c1cc(CO)cc(Cl)c1F [Compound I-456]
> 100 µM	> 100 µM	O=C(NNS(=O)(=O)C1CCNCC1)c1cc(Cl)cc(Cl)c1F [Compound I-406]
≤ 10 µM	≤ 10 µM	Cc1cc(-c2cccc(F)c2)cc(C(=O)NNS(=O)(=O)CC2CCN(C(=O)CCN(C)C(=O)OC(C)(C)C)CC2)c1F [Compound I-327]
10 to 50 µM	> 100 µM	Cc1cc(-c2cccc(OCCN(C)C)c2)cc(C(=O)NNS(=O)(=O)c2ccccc2)c1F [Compound I-386]
> 100 µM	> 100 µM	CC(=O)N1CCC(S(=O)(=O)NNC(=O)c2cc(Cl)cc(Cl)c2F)CC1 [Compound I-435]
> 100 µM	10 to 50 µM	CCc1cc(Cl)c(F)c(C(=O)NNS(=O)(=O)CC2CCOCC2)c1 [Compound I-423]
> 100 µM	50 to 100 µM	Cc1cc(-c2cccc(OCCN(C)C)c2)cc(C(=O)NNS(=O)(=O)CC2CCCCC2)c1F [Compound I-365]
≤ 10 µM	≤ 10 µM	Cc1cc(-c2cccc(C(=O)OCc3ccccc3)c2)cc(C(=O)NNS(=O)(=O)C2CCOCC2)c1F [Compound I-443]
> 100 µM	10 to 50 µM	COc1ccccc1-c1cc(C)c(F)c(C(=O)NNS(=O)(=O)CC2CCCCC2)c1 [Compound I-370]
> 100 µM	> 100 µM	CNC(=O)c1cc(Cl)c(F)c(C(=O)NNS(=O)(=O)C2CCOCC2)c1 [Compound I-491]
10 to 50 µM	≤ 10 µM	Cc1cc(-c2cccc(Cl)c2)cc(C(=O)NNS(=O)(=O)C2CCCCC2)c1F [Compound I-358]
10 to 50 µM	10 to 50 µM	Cc1cccc(-c2cc(Cl)c(F)c(C(=O)NNS(=O)(=O)C3CCCCC3)c2)c1 [Compound I-404]
50 to 100 µM	50 to 100 µM	O=C(NNS(=O)(=O)CC1CCCNC1)c1cc(-c2cccc(F)c2)cc(Cl)c1F (stereo not shown) [Compound I-416]
> 100 µM	50 to 100 µM	Cc1cc(-c2ccccc2)nc(C(=O)NNS(=O)(=O)C2CCCCC2)c1F [Compound I-483]
> 100 µM	≤ 10 µM	COc1cc(Cl)c(F)c(C(=O)NNS(=O)(=O)C2CCCCC2)c1 [Compound I-393]
≤ 10 µM	≤ 10 µM	Cc1cc(-c2cc(F)cc(F)c2)cc(C(=O)NNS(=O)(=O)c2ccccc2)c1F [Compound I-353]
> 100 µM	> 100 µM	O=C(NNS(=O)(=O)C1CCOCC1)c1cc(Cl)cc(Cl)c1F [Compound I-414]
≤ 10 µM	≤ 10 µM	O=C(NNS(=O)(=O)CC1CCOCC1)c1cc(-c2ccccc2)cc(Cl)c1F [Compound I-400]
50 to 100 µM	≤ 10 µM	Cc1cc(Br)cc(C(=O)NNS(=O)(=O)C2CCCCC2)c1F [Compound I-293]
> 100 µM	> 100 µM	CNC(=O)Cn1nc(C(=O)NNS(=O)(=O)C2CCCCC2)cc1C [Compound I-481]
≤ 10 µM	10 to 50 µM	Cc1cc(-c2ccccc2)cc(C(=O)NNS(=O)(=O)CC2CNCCO2)c1F (stereo not shown) [Compound I-426]
50 to 100 µM	50 to 100 µM	Cc1cc(-c2cccc(F)c2Cl)cc(C(=O)NNS(=O)(=O)C2CCCCC2)c1F [Compound I-399]
> 100 µM	> 100 µM	O=C(NNS(=O)(=O)c1cccc(Cl)c1)c1c(F)ccc(-c2cnc[nH]2)c1F [Compound I-499]
10 to 50 µM	10 to 50 µM	Cc1cc(-c2ccccc2)cc(C(=O)NNS(=O)(=O)CC2CCN(CCO)CC2)c1F [Compound I-343]
